In brackets after ≈: the same amount, converted by molar mass. Blank lines part the entries; values can stand above or below the molecule they belong to.
Columns and labels:
Experiment in all cases: ≥ marks a high value that may be exact or a test limit, other limits are often not marked, values filed in µg/mL are converted to µM
[1] = tested on: Trichosporon beigelii KCTC 7707
[2] = tested on: Aspergillus awamori KCTC 6915
[3] = tested on: Escherichia coli ATCC 25922
[4] = tested on: Proteus vulgaris KCTC 2433
[5] = tested on: Aspergillus parasiticus KCTC 6598
[6] = tested on: Listeria monocytogenes KCTC 3710
[7] = tested on: Pseudomonas aeruginosa ATCC 15692
[8] = tested on: Staphylococcus aureus ATCC 25923
[9] = tested on: Aspergillus flavus KCTC 6905
[10] = tested on: Candida albicans KCTC 7270
[11] = tested on: Salmonella typhimurium KCTC 1926
[12] = tested on: Staphylococcus epidermidis ATCC 12228
[13] = tested on: Aspergillus fumigatus KCTC 6145
[14] = tested on: Bacillus subtilis KCTC 1998
[15] = tested on: Pseudomonas aeruginosa PA006
[16] = tested on: Pseudomonas aeruginosa ATCC 27853
[17] = tested on: Staphylococcus aureus ATCC 29313
[18] = tested on: Salmonella enterica subsp. enterica serovar Typhimurium ATCC 14028
[19] = tested on: Pseudomonas aeruginosa PAO1
[20] = tested on: Klebsiella pneumoniae ATCC 700603
[21] = tested on: Pseudomonas aeruginosa Pa1-SA2
[22] = tested on: Pseudomonas aeruginosa Pa4-SA2

MIC [1]: ≥ 128 µM
MIC [2]: ≥ 64 µM
MIC [3]: 32 µM (≈ 61.1 µg/mL)
MIC [4]: 11.3 µM (≈ 21.6 µg/mL)
MIC [5]: 16 µM (≈ 30.6 µg/mL)
MIC [6]: 16 µM (≈ 30.6 µg/mL)
MIC [7]: ≥ 32 µM
MIC [8]: 16 µM (≈ 30.6 µg/mL)
MIC [9]: ≥ 64 µM
MIC [10]: 16 µM (≈ 30.6 µg/mL)
MIC [11]: 8 µM (≈ 15.3 µg/mL)
MIC [12]: 8 µM (≈ 15.3 µg/mL)
MIC [13]: 16 µM (≈ 30.6 µg/mL)
MIC [14]: 8 µM (≈ 15.3 µg/mL)
Compound: CC[C@H](C)[C@H](NC(=O)[C@H](CCCCN)NC(=O)[C@H](CCCCN)NC(=O)[C@H](C)NC(=O)[C@H](CC(C)C)NC(=O)[C@H](CCCCN)NC(=O)[C@H](CCCCN)NC(=O)[C@H](CC(C)C)NC(=O)[C@H](CCCN=C(N)N)NC(=O)[C@H](CCCCN)NC(=O)[C@H](C)N)C(=O)N[C@@H](Cc1c[nH]c2ccccc12)C(=O)N[C@@H](CCCCN)C(=O)N[C@@H](Cc1c[nH]c2ccccc12)C(=O)N[C@@H](CC(C)C)C(N)=O [AKRLKKLAKKIWKWL]

MIC [15]: 6.17 µM (≈ 16 µg/mL)
MIC [16]: > 197 µM
MIC [3]: 77.1 µM (≈ 200 µg/mL)
MIC [18]: 308 µM (≈ 800 µg/mL)
MIC [19]: 197 µM (≈ 512 µg/mL)
MIC [20]: 308 µM (≈ 800 µg/mL)
MIC [21]: ≥ 197 µM
MIC [22]: ≥ 98.6 µM
Compound: CC[C@H](C)[C@H](NC(=O)[C@H](CCCCN)NC(=O)CNC(=O)[C@H](CCSC)NC(=O)[C@H](C)NC(=O)[C@H](Cc1cnc[nH]1)NC(=O)[C@H](C)NC(=O)[C@@H](NC(=O)[C@H](CC(C)C)NC(=O)[C@H](CCC(N)=O)NC(=O)[C@H](CCCCN)NC(=O)CNC(=O)[C@H](C)NC(=O)CNC(=O)[C@H](CCCCN)NC(=O)[C@@H](NC(=O)[C@@H](NC(=O)[C@H](CC(=O)O)NC(=O)[C@H](Cc1ccccc1)NC(=O)[C@@H](NC(=O)CN)C(C)C)[C@@H](C)CC)[C@@H](C)CC)[C@@H](C)CC)C(=O)N[C@@H](C)C(=O)N[C@@H](CCC(=O)O)C(=O)N[C@@H](CCCCN)C(=O)N[C@H](C(N)=O)C(C)C [GVFDIIKGAGKQLIAHAMGKIAEKV]
MIC [17]: ≥ 308 µM
